Among the data in ChEMBL document CHEMBL4049462, “Synthesis and Biological Evaluation of Novel Neuroprotective Pyridazine Derivatives as Excitatory Amino Acid Transporter 2 (EAAT2) Activators” (2017) are Time and Activity values, retold here.

Common to all, as to type: functional
For assay [1], the system named is Rattus norvegicus. In words: Antiallodynic activity in oxaliplatin-induced Sprague-Dawley rat allodynia model assessed as paw withdrawal latency time at 3 mg/kg, sc administered daily up to day 13 measured on day 14 post last dose by cold plate test (reference value: 12 +/- 1.2 secs).
In assay [2] the test system is Rattus norvegicus. Briefly: Antihypersensitivity in oxaliplatin-induced Sprague-Dawley rat thermal hyperalgesia model assessed as paw withdrawal latency time at 3 mg/kg, sc administered daily up to day 13 measured on day 14 post last dose by plantar test (reference value: 10.6 +/- 0.5 secs).
Assay [3] relates to Rattus norvegicus. In words: Antiallodynic activity in oxaliplatin-induced Sprague-Dawley rat allodynia model assessed as increase in paw withdrawal latency time at 3 mg/kg, sc administered daily up to day 13 measured on day 14 post last dose by Von Frey test relative to control.
Assay [4] concerns Rattus norvegicus. In words: Antihypersensitivity in oxaliplatin-induced Sprague-Dawley rat hyperalgesia model assessed as increase in weight tolerated on posterior paw at 3 mg/kg, sc administered daily for 14 days post oxaliplatin challenge measured on day 14 post last dose by analgesimeter relative to control.
In assay [5] the test system is Rattus norvegicus. In words: Antiallodynic activity in oxaliplatin-induced Sprague-Dawley rat allodynia model assessed as increase in paw withdrawal latency time at 3 mg/kg, sc administered daily up to day 6 measured on day 7 post last dose by Von Frey test relative to control.
Assay [6] relates to Rattus norvegicus. Briefly: Antihypersensitivity in oxaliplatin-induced Sprague-Dawley rat thermal hyperalgesia model assessed as paw withdrawal latency time at 3 mg/kg, sc administered daily up to day 6 measured on day 7 post last dose by plantar test (reference value: 9 +/- 1 secs).
Assay [7] has as its system Rattus norvegicus. In words: Antihypersensitivity in oxaliplatin-induced Sprague-Dawley rat hyperalgesia model assessed as increase in weight tolerated on posterior paw at 3 mg/kg, sc administered daily for 7 days post oxaliplatin challenge measured on day 7 post last dose by analgesimeter relative to control.
Assay [8] concerns Rattus norvegicus. Briefly: Antiallodynic activity in oxaliplatin-induced Sprague-Dawley rat allodynia model assessed as paw withdrawal latency time at 3 mg/kg, sc administered daily up to day 6 measured on day 7 post last dose by cold plate test (reference value: 14.3 +/- 0.3 secs).
In assay [9] the test system is Rattus norvegicus. In words: Antiallodynic activity in oxaliplatin-induced Sprague-Dawley rat allodynia model assessed as paw withdrawal latency time at 3.43 mg/kg, sc administered daily up to day 13 measured on day 14 post last dose by cold plate test (reference value: 12 +/- 1.2 secs).
Assay [10] deals with Rattus norvegicus. In words: Antihypersensitivity in oxaliplatin-induced Sprague-Dawley rat thermal hyperalgesia model assessed as paw withdrawal latency time at 3.43 mg/kg, sc administered daily up to day 6 measured on day 7 post last dose by plantar test (reference value: 9 +/- 1 secs).
The test system of assay [11] is Rattus norvegicus. Briefly: Antiallodynic activity in oxaliplatin-induced Sprague-Dawley rat allodynia model assessed as paw withdrawal latency time at 3.43 mg/kg, sc administered daily up to day 6 measured on day 7 post last dose by Von Frey test (reference value: 12.4 +/- 1.2 secs).
The test system of assay [12] is Rattus norvegicus. Briefly: Antiallodynic activity in oxaliplatin-induced Sprague-Dawley rat allodynia model assessed as paw withdrawal latency time at 3.43 mg/kg, sc administered daily up to day 6 measured on day 7 post last dose by cold plate test (reference value: 14.3 +/- 0.3 secs).
Assay [13] has as its system Rattus norvegicus. In words: Antihypersensitivity in oxaliplatin-induced Sprague-Dawley rat hyperalgesia model assessed as weight tolerated on posterior paw at 3.43 mg/kg, sc administered daily for 7 days post oxaliplatin challenge measured on day 7 post last dose by analgesimeter (reference value: 46.1 +/- 0.5 g).
The test system of assay [14] is Rattus norvegicus. In words: Antihypersensitivity in oxaliplatin-induced Sprague-Dawley rat thermal hyperalgesia model assessed as paw withdrawal latency time at 3.43 mg/kg, sc administered daily up to day 13 measured on day 14 post last dose by plantar test (reference value: 10.6 +/- 0.5 secs).
Assay [15] relates to Rattus norvegicus. In words: Antihypersensitivity in oxaliplatin-induced Sprague-Dawley rat hyperalgesia model assessed as increase in weight tolerated on posterior paw at 3.43 mg/kg, sc administered daily up to day 13 measured on day 14 post last dose by analgesimeter relative to control.
Assay [16] concerns Rattus norvegicus. Briefly: Antihypersensitivity in oxaliplatin-induced Sprague-Dawley rat hyperalgesia model assessed as increase in weight tolerated on posterior paw at 3.37 mg/kg, sc administered daily up to day 13 measured on day 14 post last dose by analgesimeter relative to control.
In assay [17] the test system is Rattus norvegicus. Briefly: Antiallodynic activity in oxaliplatin-induced Sprague-Dawley rat allodynia model assessed as paw withdrawal latency time at 3.37 mg/kg, sc administered daily up to day 6 measured on day 7 post last dose by cold plate test (reference value: 14.3 +/- 0.3 secs).
Assay [18] has as its system Rattus norvegicus. Briefly: Antiallodynic activity in oxaliplatin-induced Sprague-Dawley rat allodynia model assessed as increase in paw withdrawal latency time at 3.37 mg/kg, sc administered daily up to day 13 measured on day 14 post last dose by Von Frey test relative to control.
Assay [19] deals with Rattus norvegicus. In words: Antiallodynic activity in oxaliplatin-induced Sprague-Dawley rat allodynia model assessed as increase in paw withdrawal latency time at 3.43 mg/kg, sc administered daily up to day 13 measured on day 14 post last dose by Von Frey test relative to control.
The test system of assay [20] is Rattus norvegicus. Briefly: Antihypersensitivity in oxaliplatin-induced Sprague-Dawley rat thermal hyperalgesia model assessed as paw withdrawal latency time at 3.37 mg/kg, sc administered daily up to day 6 measured on day 7 post last dose by plantar test (reference value: 9 +/- 1 secs).
Assay [21] relates to Rattus norvegicus. In words: Antihypersensitivity in oxaliplatin-induced Sprague-Dawley rat hyperalgesia model assessed as weight tolerated on posterior paw at 3.37 mg/kg, sc administered daily for 7 days post oxaliplatin challenge measured on day 7 post last dose by analgesimeter (reference value: 46.1 +/- 0.5 g).
For assay [22], the system named is Rattus norvegicus. In words: Antiallodynic activity in oxaliplatin-induced Sprague-Dawley rat allodynia model assessed as paw withdrawal latency time at 3.37 mg/kg, sc administered daily up to day 13 measured on day 14 post last dose by cold plate test (reference value: 12 +/- 1.2 secs).
The test system of assay [23] is Rattus norvegicus. In words: Antiallodynic activity in oxaliplatin-induced Sprague-Dawley rat allodynia model assessed as paw withdrawal latency time at 3.37 mg/kg, sc administered daily up to day 6 measured on day 7 post last dose by Von Frey test (reference value: 12.4 +/- 1.2 secs).
For assay [24], the system named is Rattus norvegicus. In words: Antihypersensitivity in oxaliplatin-induced Sprague-Dawley rat thermal hyperalgesia model assessed as paw withdrawal latency time at 3.37 mg/kg, sc administered daily up to day 13 measured on day 14 post last dose by plantar test (reference value: 10.6 +/- 0.5 secs).
Assay [25] concerns Rattus norvegicus. Briefly: Antiallodynic activity in oxaliplatin-induced Sprague-Dawley rat allodynia model assessed as paw withdrawal latency time at 3.28 mg/kg, sc administered daily up to day 13 measured on day 14 post last dose by cold plate test (reference value: 12 +/- 1.2 secs).
For assay [26], the system named is Rattus norvegicus. Briefly: Antihypersensitivity in oxaliplatin-induced Sprague-Dawley rat hyperalgesia model assessed as weight tolerated on posterior paw at 3.28 mg/kg, sc administered daily up to day 13 measured on day 14 post last dose by analgesimeter (reference value: 44.7 +/- 1.2 g).
The test system of assay [27] is Rattus norvegicus. Briefly: Antihypersensitivity in oxaliplatin-induced Sprague-Dawley rat hyperalgesia model assessed as weight tolerated on posterior paw at 3.28 mg/kg, sc administered daily for 7 days post oxaliplatin challenge measured on day 7 post last dose by analgesimeter (reference value: 46.1 +/- 0.5 g).
Assay [28] has as its system Rattus norvegicus. In words: Antihypersensitivity in oxaliplatin-induced Sprague-Dawley rat thermal hyperalgesia model assessed as paw withdrawal latency time at 3.28 mg/kg, sc administered daily up to day 6 measured on day 7 post last dose by plantar test (reference value: 9 +/- 1 secs).
Assay [29] deals with Rattus norvegicus. Briefly: Antiallodynic activity in oxaliplatin-induced Sprague-Dawley rat allodynia model assessed as increase in paw withdrawal latency time at 3.28 mg/kg, sc administered daily up to day 6 measured on day 7 post last dose by Von Frey test relative to control.
Assay [30] deals with Rattus norvegicus. Briefly: Antiallodynic activity in oxaliplatin-induced Sprague-Dawley rat allodynia model assessed as paw withdrawal latency time at 3.28 mg/kg, sc administered daily up to day 6 measured on day 7 post last dose by cold plate test (reference value: 14.3 +/- 0.3 secs).
Assay [31] relates to Rattus norvegicus. Briefly: Antiallodynic activity in oxaliplatin-induced Sprague-Dawley rat allodynia model assessed as paw withdrawal latency time at 3.28 mg/kg, sc administered daily up to day 13 measured on day 14 post last dose by Von Frey test (reference value: 11.6 +/- 0.5 secs).
In assay [32] the test system is Rattus norvegicus. Briefly: Antihypersensitivity in oxaliplatin-induced Sprague-Dawley rat thermal hyperalgesia model assessed as paw withdrawal latency time at 3.28 mg/kg, sc administered daily up to day 13 measured on day 14 post last dose by plantar test (reference value: 10.6 +/- 0.5 secs).
The test system of assay [33] is Rattus norvegicus. Briefly: Antihypersensitivity in oxaliplatin-induced Sprague-Dawley rat thermal hyperalgesia model assessed as paw withdrawal latency time at 3.42 mg/kg, sc administered daily up to day 13 measured on day 14 post last dose by plantar test (reference value: 10.6 +/- 0.5 secs).
The subject of assay [34] is Rattus norvegicus. In words: Antihypersensitivity in oxaliplatin-induced Sprague-Dawley rat hyperalgesia model assessed as weight tolerated on posterior paw at 3.42 mg/kg, sc administered daily for 7 days post oxaliplatin challenge measured on day 7 post last dose by analgesimeter (reference value: 46.1 +/- 0.5 g).
Assay [35] deals with Rattus norvegicus. In words: Antihypersensitivity in oxaliplatin-induced Sprague-Dawley rat thermal hyperalgesia model assessed as paw withdrawal latency time at 3.42 mg/kg, sc administered daily up to day 6 measured on day 7 post last dose by plantar test (reference value: 9 +/- 1 secs).
Assay [36] deals with Rattus norvegicus. Briefly: Antiallodynic activity in oxaliplatin-induced Sprague-Dawley rat allodynia model assessed as paw withdrawal latency time at 3.42 mg/kg, sc administered daily up to day 6 measured on day 7 post last dose by cold plate test (reference value: 14.3 +/- 0.3 secs).
In assay [37] the test system is Rattus norvegicus. Briefly: Antiallodynic activity in oxaliplatin-induced Sprague-Dawley rat allodynia model assessed as paw withdrawal latency time at 3.42 mg/kg, sc administered daily up to day 13 measured on day 14 post last dose by cold plate test (reference value: 12 +/- 1.2 secs).
For assay [38], the system named is Rattus norvegicus. In words: Antihypersensitivity in oxaliplatin-induced Sprague-Dawley rat hyperalgesia model assessed as increase in weight tolerated on posterior paw at 3.42 mg/kg, sc administered daily up to day 13 measured on day 14 post last dose by analgesimeter relative to control.
The subject of assay [39] is Rattus norvegicus. Briefly: Antiallodynic activity in oxaliplatin-induced Sprague-Dawley rat allodynia model assessed as increase in paw withdrawal latency time at 3.42 mg/kg, sc administered daily up to day 13 measured on day 14 post last dose by Von Frey test relative to control.
Assay [40] deals with Rattus norvegicus. Briefly: Antiallodynic activity in oxaliplatin-induced Sprague-Dawley rat allodynia model assessed as paw withdrawal latency time at 3.42 mg/kg, sc administered daily up to day 6 measured on day 7 post last dose by Von Frey test (reference value: 12.4 +/- 1.2 secs).

For the molecule `Cc1ccccc1CSc1ccc(-c2ccccn2)nn1`, the Time was found to be 22.5 s with Rattus norvegicus [1], 18.3 s in the assay on Rattus norvegicus [2], 14.1 s in the assay on Rattus norvegicus [6] and 17 s with Rattus norvegicus [8]. Also, the Activity in the assay on Rattus norvegicus [3] is on record as 75.9%; in the assay on Rattus norvegicus [4], 76.4%; with Rattus norvegicus [5] it was 51.3%; in the assay with Rattus norvegicus [7] it was 67.1%.

Consider `c1ccc(-c2ccc(SCc3nc4ccccc4s3)nn2)nc1`, for which the Time in the assay with Rattus norvegicus [9] is 16.3 s; with Rattus norvegicus [10] it was 14.3 s; in the assay with Rattus norvegicus [11], 16.4 s; in the assay with Rattus norvegicus [12], 15.8 s; with Rattus norvegicus [14], 15.8 s. The Activity with Rattus norvegicus [13] worked out at 54.7 g; in the assay with Rattus norvegicus [15] it was 72.5%.

In the case of `c1ccc(-c2ccc(SCc3ccc4ccccc4n3)nn2)nc1`, the Activity with Rattus norvegicus [16] is on record as 31.7%; in the assay on Rattus norvegicus [18], 33%; in the assay with Rattus norvegicus [19], 67.8%; in the assay with Rattus norvegicus [21] it was 48.4 g. The Time in the assay on Rattus norvegicus [17] turned out to be 14.5 s; in the assay on Rattus norvegicus [20] it was 11.6 s; in the assay on Rattus norvegicus [22] it was 15.6 s; in the assay with Rattus norvegicus [23], 13.5 s; in the assay on Rattus norvegicus [24] it was 13.7 s.

Turning to `c1ccc(-c2ccc(SCc3ccc4ccccc4c3)nn2)nc1`, the Activity stood at 40.1% with Rattus norvegicus [16], 53% in the assay on Rattus norvegicus [18] and 51.9 g in the assay with Rattus norvegicus [21]. Besides, the Time with Rattus norvegicus [2] came to 15.5 s; in the assay with Rattus norvegicus [17] it was 16 s; in the assay with Rattus norvegicus [20], 14.2 s; with Rattus norvegicus [22], 16.5 s; in the assay on Rattus norvegicus [23] it was 17.6 s.

For `c1ccc(-c2ccc(SCc3cccc4nonc34)nn2)nc1`, the Time in the assay on Rattus norvegicus [25] is listed as 22 s; in the assay with Rattus norvegicus [28], 15.2 s; in the assay on Rattus norvegicus [30] it was 19.4 s; with Rattus norvegicus [31], 23.8 s; in the assay with Rattus norvegicus [32], 18.7 s. Moreover, the Activity in the assay on Rattus norvegicus [26] is 62.8 g; in the assay with Rattus norvegicus [27], 58.6 g; with Rattus norvegicus [29], 62.8%.

In the case of `c1ccc(-c2ccc(SCc3cc4ccccc4s3)nn2)nc1`, the Time with Rattus norvegicus [33] worked out at 15.1 s; in the assay on Rattus norvegicus [35], 12.8 s; in the assay with Rattus norvegicus [36], 17.8 s; with Rattus norvegicus [37], 17.5 s. Moreover, the Activity with Rattus norvegicus [34] was 55.3 g; in the assay on Rattus norvegicus [38], 86.2%; with Rattus norvegicus [39], 64.3%.

For the molecule `c1ccc(-c2ccc(SCc3cccc4cccnc34)nn2)nc1`, the Activity is reported as 44.3% with Rattus norvegicus [16], 68.7% with Rattus norvegicus [18] and 51.3 g with Rattus norvegicus [21]. For the same molecule, the Time is 13.8 s in the assay with Rattus norvegicus [2]; 18 s with Rattus norvegicus [17]; 12.5 s with Rattus norvegicus [20]; 18 s in the assay on Rattus norvegicus [22]; 18.8 s in the assay with Rattus norvegicus [40]; 17.6 s in the assay with Rattus norvegicus [23].
